According to patent US7879821B2, “Method for modulating inflammatory responses by altering plasma lipid levels” (University of Medicine and Dentistry of New Jersey, priority 2006, dated 2011):
Entries after “also recorded” stand apart in the source; their conditions may differ.

Assays:
[1] = system: human neutrophils (PMN); experiment: Cholesterol-mediated Ca2+ influx in human PMN (fura-2 calcium spectrofluorometry); format: cell-based; conditions: for effect on cholesterol mediated Ca2+ influx (actin reorganization): Caly A 50 nM in cuvette, Cyto D pretreatment 2.5 uM 15 min, cholesterol 10 ug/ml; for effect of calcium channel blocker on cholesterol-mediated PMN calcium entry: dose response curves not shown
[2] = system: PMN; experiment: Store-operated calcium entry (SOCE) initiated by fMLP and Tg in PMN; format: cell-based, human
Procedure: We hypothesized that calcium-entry dependent functions like RB would depend upon S1P synthesis and subsequent S1P interactions with rafts. Thus we developed a calcium-entry dependent RB model where Ca entry was manipulated by sphingosine kinase (SphK) inhibition, which inhibits S1P synthesis in response to internal calcium store release. […] Note that the vast majority of cell [Ca^2+] increases are due to calcium influx on re-calcifying the medium.
(§1) PMN were suspended in HEPES buffer with 1 mM CaCl2 and 0.1% BSA and incubated with 2 μg/mL fura-2AM for 30 minutes in the dark at 37° C. Cells were divided into aliquots (2×10^6 PMN) and placed on ice in the dark. Prior to study, samples were warmed to 37°, centrifuged (4500 RPM, 5 sec) and supernatants removed. Pellets were resuspended in 200 μl of BSA-free and ‘nominally calcium-free’ HEPES buffer (with 0.3 mM EGTA) and finally injected into cuvettes containing 2.8 mL of the same buffer for study. Intracellular free calcium concentration ([Ca2+]i) was determined from the fluorescence at 505 nm using 340/380 nm dual wavelength excitation. (Fluoromax-2, Jobin-SPEX, Edison, N.J.).

[3] = system: PMN lipid raft fractions; experiment: Cholesterol content of PMN lipid raft fractions isolated by ultracentrifugation; format: cell-based, human; conditions: for ratio of cholesterol to protein / cholesterol concentration in the lowest density raft fractions: PMN pretreated, micromolar concentrations, absence of albumin; for change of cholesterol in raft fractions versus higher density fractions: cholesterol 10 μg/ml 10 minutes or MβCD 10 μM/10 min
Procedure: Lipid raft fractions were isolated by ultracentrifugation from PMN treated with S1P, cholesterol or buffer only (“none”). […] After isolation from 2-3 normal volunteer donors, 5×10^7 PMN were divided into aliquots. Aliquots were treated at 37° C. with 10 μg/ml water-soluble cholesterol for 10 minutes, MβCD (10 μM/10 min) or with vehicle. All steps thereafter were performed on ice. Cells were spun and pellets resuspended in 1 ml of base buffer (20 mM Tris-HCl pH 7.8, 250 mM Sucrose, 1 mM CaCl2 and 1 mM MgCl2) containing protease inhibitor and 50 μg/ml calpain inhibitor 1. Cells were disrupted by passage through a 22 g 3″ needle 10 times. Fragmented cells were sonicated 5×20 s, cooling the cells on ice between sonications. […] The cell pellets were resuspended in 1 ml base buffer with inhibitors and the sonication repeated. The two postnuclear supernatants were combined and an equal volume of 50% Optiprep added. […] Tubes were then centrifuged (52,000 g; 3 hours) and serial 670 μl fractions were collected from the top of the tube using careful pipetting. Protein in each fraction was assayed by micro BCA assay method (Pierce, Rockford Ill.). Cholesterol was assayed using an Amplex Red cholesterol assay kit (Molecular Probes). Alkaline phosphatase was assayed using p-nitrophenyl phosphate as substrate. […] No detergents were used in raft preparation.

[4] = system: PMN; experiment: Calcium-entry dependent respiratory burst (RB) initiated by fMLP/Tg in PMN; format: cell-based, human; conditions: for effect of cholesterol depletion on fMLP/Tg RB: MBCD 10 mM/10 min, fMLP/TG 100 nM/1 uM
Procedure: The graph represents Vmax slopes values. n=2 for Blank, Cholesterol Blank and Cholesterol alone. The others are n=6.
RB was assessed in PMN suspensions. Briefly, 2×10^6 PMN were suspended in 3 ml of HEPES buffer with 0.1% BSA and 15 ng/ml of 1,2,3-dihydrorhodamine (DHR) added. Cells were studied at 37° C. with constant stirring using excitation at 488 nm and emission at 530 nm. RB was allowed to become linear and achieve maximal reaction rate (Vmax). The fluorescent intensity (FI) curve of oxidized DHR was compiled for 60 seconds during Vmax. Curve-fitting analysis was performed over the linear portion (Sigma-Plot 4.0, SPSS, Chicago, Ill.). Vmax was assessed as the first derivative of the fluorescent intensity in counts per second (CPS).
Next we evaluated the functional relevance of cholesterol-mediated Ca^2+ influx. We studied a PMN model where RB depends entirely on extra-cellular calcium entry to see if RB would vary with the incorporation of cholesterol into rafts.
To do this, PMN were pre-incubated with MβCD, with vehicle or with varying concentrations of cholesterol to vary membrane raft cholesterol content (FIG. 21B). After the pre-incubation, RB was initiated using fMLP/Tg.

[5] = system: PMN; experiment: fMLP-mediated Ca2+ entry in PMN; format: cell-based, human
Procedure: as §1
To confirm that the effects of cholesterol on GPCR mediated Ca^2+ entry were generalized and not restricted to PAF we evaluated the effects of cholesterol on fMLP-mediated Ca^2+ entry. Consistent with PAF, fMLP-linked Ca^2+ entry responses were suppressed by MβCD and augmented by cholesterol (FIG. 23, upper panel).

[6] = system: human PMN; experiment: PAF mediated SOCE in human PMN; format: cell-based
[7] = system: PMN; experiment: Thapsigargin (TG) initiated Ca2+ entry in PMN; format: cell-based, human
Procedure: as §1
Since cholesterol had no discernable effect on ER Ca^2+ store release in response to PAF we examined the possibility that could play a direct role in the regulation of store-operated Ca^2+ entry; a Ca^2+ entry mechanism that is completely independent of GPCR activation. To study this we used thapsigargin (TG). TG blocks ER Ca^2+ ATPase pumps, thus depleting ER Ca^2+ stores directly and causing calcium entry independent of GPCR activation.

[8] = system: TRPC1; experiment: Western blotting for TRPC1 in PMN raft fractions; format: cell-based, human; conditions: for global TRPC1 protein expression in whole cell lysates: 10 minutes exposure
Procedure: TRPC1 is a prototypic calcium channel protein of the TRP family. PMN express multiple TRPC proteins that are known to traffic to the cell membrane during Ca entry. We therefore studied TRPC1 raft-trafficking in response to cholesterol as an initial proof of principle that raft cholesterol concentration might regulate the distribution of multiple Ca^2+-influx related proteins to or from the cell membrane. We analyzed 20 μl of each gradient fraction by electrophoresis on a SDS gel followed by Western blotting for TRPC1 protein. The primary rabbit anti-human TRPC1 antibody (Santa Cruz) was used at 1:1,600 dilution. Secondary goat anti-rabbit antibody was used at 1:16,000 dilution. An ECL Western blotting detection kit was used to develop the blots which were imaged as above.
We therefore used Western blots to probe for TRPC1 in fractions 2-4 of pooled normal volunteer PMN fractionated with or without prior incubation in 10 μg/mL cholesterol (FIG. 26).
Subsequently, we sought to determine the source of the increased TRPC1 in the lipid raft fractions. Whole cell lysates from cholesterol treated and untreated cells were compared (not shown). […] Since the events leading to calcium entry are very rapid, later time points were not studied. Finally, we assayed TRPC1 in individual raft fractions from concurrently treated and analyzed PMN specimens (FIG. 27). […] Thus a redistribution of TRPC1 occurs in response to cholesterol treatment which appears to reflect trafficking of the protein to raft fractions rather than de novo synthesis.

[9] = system: PMN; experiment: PMN calcium entry responses to S1P; format: cell-based, human
Procedure: To evaluate whether Ca^2+-entry responses to S1P were raft dependent, we then disrupted lipid rafts using MBCD to bind raft cholesterol.
as §1

[10] = system: PMN lipid rafts (GM-1); experiment: Immunofluorescent microscopy for GM-1 (FITC-CTB) in PMN rafts; format: cell-based, human; conditions: free cholesterol 10 μg/mL
[11] = fMLP/Tg RB after pre-incubation

Question: COC[C@@H]([C@H](O)[C@H](O)C(=O)NCC[C@H](C)c1nc(/C=C/C[C@@H]2O[C@]3(C[C@@H](O)[C@@H]2C)O[C@H]([C@H](C[C@H](O)[C@H](C)[C@H](O)[C@H](C)/C=C(C)/C(C)=C/C=C/C(C)=C\C#N)OC)[C@H](OP(=O)(O)O)C3(C)C)co1)N(C)C [CalyA, Calyculin A] was tested. Which “effect on cholesterol mediated Ca2+ influx (actin reorganization)” value [1] did it give?
Answer: abolished

Question: Which “effect on cholesterol mediated Ca2+ influx (actin reorganization)” value [1] does the source give for C=C1[C@@H](C)[C@H]2[C@H](Cc3ccccc3)NC(=O)[C@]23[C@H](OC(C)=O)/C=C/[C@@](C)(O)C(=O)[C@@H](C)C/C=C/[C@H]3[C@@H]1O [CytoD, Cytochalasin D] here?
Answer: reversed the inhibition

Question: [La+3] [La^3+, lanthanum] was tested. Which “inhibition of cholesterol mediated PMN Ca2+ influx by lanthanum” value ([1]; 1 mM) did it give?
Answer: inhibited; also recorded: almost totally inhibits

Question: With CCCCCCCCCCCCC/C=C/[C@@H](O)[C@@H](N)COP(=O)(O)O [S1P, sphingosine 1-phosphate, reference compound] as the compound, how does the “reversal of SKI-2 inhibition of SOCE by exogenous S1P” value ([2]; 5 M S1P, 30 μM SKI-2) read?
Answer: totally reversed; also recorded: reverses 30 μM SKI-2 inhibition

Question: And the “ratio of cholesterol to protein / cholesterol concentration in the lowest density raft fractions” value [3]?
Answer: increases in cholesterol concentration

Question: And the “ratio of cholesterol to protein / cholesterol concentration in the lowest density raft fractions” value ([3]; listed as SIP)?
Answer: even greater increases in cholesterol concentration

Question: And the “rescue of RB after SKI-2 inhibition” value ([4]; S1P 5 uM after SKI-2 30 uM)?
Answer: rescue of RB

Question: And the “restoration of RB by S1P after MβCD cholesterol depletion” value ([4]; n=4-6)?
Answer: restored RB to control levels

Question: COc1ccc(CCCOC(Cn2ccnc2)c2ccc(OC)cc2)cc1 (centres unmarked) [SKF96365] was tested. Which IC50 ([1]; Neutrophil, human PMN, 3-4 experiments per condition, read-out: IC50 for block of cholesterol-mediated PMN calcium entry) did it give?
Answer: ~30 µM

Question: And the “effect of calcium channel blocker on cholesterol-mediated PMN calcium entry” value (“effect of calcium channel blocker” below) ([1]; human PMN)?
Answer: inhibited

Question: What about the “effect of calcium channel blocker” value ([1]; human PMN, listed as SKF) of the same compound?
Answer: quantitatively inhibited

Question: What does the source list for Oc1ccc(Nc2nc(-c3ccc(Cl)cc3)cs2)cc1 [SKI-2]?
Answer: effect on SOCE initiated by fMLP and Tg ([2]; fMLP 100 nM, Tg 1 uM): inhibited; also recorded: suppressing SOCE; effect of SphK inhibition on fMLP/Tg induced RB ([4]; 30 uM, n=4): blocked fMLP/Tg induced RB down to background levels

Question: Which “effect on fMLP-linked Ca2+ entry responses” value [5] does the source give for CC(C)CCC[C@@H](C)[C@H]1CC[C@H]2[C@@H]3CC=C4C[C@@H](O)CC[C@]4(C)[C@H]3CC[C@]12C [cholesterol] here?
Answer: augmented

Question: What about the “effect of very high cholesterol concentrations on fMLP-mediated Ca2+ entry” value ([5]; very high cholesterol concentrations) of the same compound?
Answer: suppressed calcium entry

Question: And the “effect on release of Ca2+ from cell stores (PAF)” value ([6]; PAF 100 nM)?
Answer: no effect upon Ca^2+ store mobilization

Question: What about the “effect of cholesterol present in cuvette on PAF Ca2+ entry in normal cells” value ([6]; normal PMN, brief exposure) of the same compound?
Answer: increased Ca^2+ entry

Question: And the “rescue of PAF Ca2+ entry by cholesterol after MβCD” value ([6]; small amounts of cholesterol (3 ug/ml final))?
Answer: rescued Ca^2+entry

Question: And the “reversal of MβCD inhibition of TG Ca2+ entry by cholesterol re-addition” value [7]?
Answer: immediately reversed and even overcome

Question: And the “global TRPC1 protein expression in whole cell lysates” value [8]?
Answer: No differences in global TRPC1 protein expression

Question: And the “TRPC1 protein in membrane lipid raft fractions” value ([8]; pre-incubation in 10 μg/mL cholesterol)?
Answer: increases the amount of TRPC1 protein; also recorded: redistribution of the TRPC1 signal from higher density fractions into the raft fractions

Question: And the “effect of cholesterol on patient PMN calcium entry response to S1P” value ([9]; injured patients' PMN, cholesterol 30 ug/ml, n=8 PMN isolates)?
Answer: restored to healthy volunteer levels; also recorded: exceed basal levels

Question: What about the “reversal of MβCD effect on S1P calcium entry by cholesterol replenishment” value ([9]; n=3) of the same compound?
Answer: reversible; also recorded: reversal of the MβCD effect

Question: And the “ratio of cholesterol to protein / cholesterol concentration in the lowest density raft fractions” value [3]?
Answer: more than doubles

Question: What about the “change of cholesterol in raft fractions versus higher density fractions” value [3] of the same compound?
Answer: incorporated preferentially into the low density fractions

Question: What about the “rescue of RB by cholesterol in MBCD treated neutrophils” value ([4]; cholesterol 30 ug/ml) of the same compound?
Answer: rescued RB from MβCD inhibition; also recorded: significantly rescued that RB

Question: And the “external cholesterol concentration yielding optimal PMN oxidant production” value [4, 11]?
Answer: 10 µg/mL

Question: What about the “external cholesterol concentration yielding optimal PMN oxidant production (molar)” value [4, 11] of the same compound?
Answer: ~25 µM

Question: And the “effect of increasing (high) cholesterol concentrations on RB” value ([4]; pre-incubation, higher concentrations (FIG. 21B columns 6-7))?
Answer: decreased the degree of respiratory burst

Question: What about the “effect of lower cholesterol concentrations on RB” value ([4]; pre-incubation, lower concentrations (FIG. 21B columns 3-5)) of the same compound?
Answer: dose-dependent augmentation of RB

Question: And the “membrane GM-1 binding and raft coalescence” value [10]?
Answer: increased membrane GM-1 available for binding

Question: What about the “effect of cholesterol concentrations above 10 μg/mL on PMN Ca2+ uptake” value ([1]; above 10 μg/mL, direct stimulation and combination with S1P) of the same compound?
Answer: suppress PMN Ca^2+ uptake

Question: What about the “direct calcium entry caused by cholesterol at re-addition dose” value ([1]; cholesterol 3 ug/ml final) of the same compound?
Answer: does not itself cause calcium entry

Question: What about the “direct effect of cholesterol on calcium entry into human PMN” value ([1]; free cholesterol, albumin-free media) of the same compound?
Answer: caused Ca entry without any antecedent release of calcium stores; also recorded: potent, dose-dependent activator; also recorded: direct dose-related response

Question: Which “effect of calcium channel blocker” value ([1]; human PMN) does the source give for COc1ccc(CCN(C)CCCC(C#N)(c2ccc(OC)c(OC)c2)C(C)C)cc1OC (centres unmarked) [verapamil] here?
Answer: not inhibited; also recorded: no effect

Question: And the “effect of calcium channel blocker” value ([1]; human PMN, listed as VER)?
Answer: no effect at any concentration

Question: Which “effect on fMLP-linked Ca2+ entry responses” value [5] does the source give for methyl-β cyclodextrin [MβCD] here?
Answer: suppressed

Question: And the “effect on release of Ca2+ from cell stores (PAF)” value ([6]; PAF 100 nM)?
Answer: no effect whatsoever

Question: And the “effect on PAF-initiated Ca2+ entry after cholesterol sequestration” value ([6]; PAF 100 nM, MBCD 10 mM 10 minutes)?
Answer: blocked

Question: And the “effect on TG initiated Ca2+ entry” value [7]?
Answer: markedly inhibited

Question: What about the “global TRPC1 protein expression in whole cell lysates” value [8] of the same compound?
Answer: No differences in global TRPC1 protein expression

Question: What about the “effect of MβCD on patient PMN Ca2+ entry responses to S1P” value ([9]; injured patients' PMN) of the same compound?
Answer: further suppressed

Question: What about the “effect of raft disruption on PMN calcium entry responses to S1P” value ([9]; n=3) of the same compound?
Answer: completely blocks calcium entry

Question: And the “effect of raft disruption on PMN calcium entry responses to S1P” value ([9]; n=3, listed as MBCD)?
Answer: completely blocked

Question: What about the “change of cholesterol in raft fractions versus higher density fractions” value [3] of the same compound?
Answer: removed cholesterol from raft fractions

Question: And the “effect of cholesterol depletion on fMLP/Tg RB” value [4]?
Answer: inhibited RB; also recorded: clear suppression of RB; also recorded: markedly suppressed RB responses

Question: What about the “effect of cholesterol depletion on fMLP/Tg RB” value ([4]; listed as MBCD) of the same compound?
Answer: blocks RB; also recorded: attenuated
